Source: patent US6492328B2, “Novispirins: antimicrobial peptides” (priority 2000, dated 2002)
Values after ≈ are worked out from the molar mass of the structure shown. Read-outs that look alike come from different tables or passages of the source. Where no end group is shown, it is not given here.

Experiments:
[1] = system: P. aeruginosa MR 3007; settings: underlay gel 60% RPMI-1640
Source text: (§1) Effect of serum. […] Because serum can be present in an inflammatory focus or exudate, the ability to function in the presence of serum would be a desirable property.
(§2) In these experiments, the underlay gel contained 60% RPMI-1640, ±2.5 or 20% normal human serum (NHS). The remainder of the solution was phosphate-buffered saline

[2] = system: E. coli ML 35P; settings: underlay gel 60% RPMI-1640
Source text: as §1, §2

[3] = system: S. maltophilia 51Cl; assay: Novispirins vs S. maltophilia (Table 5); format: cell-based, Stenotrophomonas maltophilia; design: unit not given here; settings: strain 51Cl
Protocol: (§3) Microorganisms used in this study included 13 different Pseudomonas aeruginosa strains. The AML-654 and LZ-1 strains are recent clinical isolates from the UCLA Clinical Microbiology laboratory. Nine strains (5 mucoid, 4 nonmucoid) were recent CF isolates provided by Dr. Lisa Saiman. All of the P. aeruginosa strains except PAO-1 strain were resistant to multiple conventional antibiotics, and all 9 CF isolates were resistant to 250 μg/ml of tobramycin. We have also tested 5 strains each of Stenotrophomonas maltophilia and Burkholderia cepacia from CF patients (also provided by Dr. Lisa Saiman), two strains of Escherichia coli (ML-35p and DH-5a), and single strains of Staphylococcus aureus[MRSA (methicillin-resistant S. aureus)] and C. albicans.

[4] = system: S. maltophilia 47CG; assay: Novispirins vs S. maltophilia (Table 5); format: cell-based, Stenotrophomonas maltophilia; design: unit not given here; settings: strain 47CG
Protocol: as §3

[5] = system: S. maltophilia 36CN; assay: Novispirins vs S. maltophilia (Table 5); format: cell-based, Stenotrophomonas maltophilia; design: unit not given here; settings: strain 36CN
Protocol: as §3

[6] = system: S. maltophilia 18CP; assay: Novispirins vs S. maltophilia (Table 5); format: cell-based, Stenotrophomonas maltophilia; design: unit not given here; settings: strain 18CP
Protocol: as §3

[7] = system: S. maltophilia 42CK; assay: Novispirins vs S. maltophilia (Table 5); format: cell-based, Stenotrophomonas maltophilia; design: unit not given here; settings: strain 42CK
Protocol: as §3

[8] = system: P. aeruginosa; assay: Two stage radial diffusion assay with 10 mM HEPES, G10 variants (Table 8); format: cell-based; settings: mean ± SEM, n = 3, in µg/mL
Source text: (§4) Amidation (—NH2) of the carboxy terminus in some of the novispirin G10 variants was designed to increase overall positive charge. The sequences of these peptides and their net charge is shown below in Table 7. The fractional (and pH dependent) charge on histidine12 was ignored in this calculation.
(§5) In Table 8, MIC signifies minimal inhibitory concentration, as determined by two stage radial diffusion assays. […] Shaded boxes show results that represent a significant improvement of activity (p<0.01 by t-test), relative to novispirin G10. […] None of the above G10 novispirin derivatives caused any hemolysis of human red blood cells, even when tested at 80 μg/ml. It is likely that other cationic amino acids (e.g., lysine, ornithine, etc) could also be used in position 12 to achieve better activity in the presence of calcium and magnesium ions.

[9] = system: S. aureus; assay: as above; format: cell-based; settings: +1 mM Ca; mean ± SEM, n = 3; in µg/mL
Source text: as §4, §5

[10] = system: K. pneumoniae; assay: as above; format: cell-based; settings: mean ± SEM, n = 3, in µg/mL
Source text: as §4, §5

[11] = system: E. coli; assay: as above; format: cell-based; settings: mean ± SEM, n = 3, in µg/mL
Source text: as §4, §5

[12] = system: E. coli ML 35P; format: cell-based, Escherichia coli; settings: mean ± SEM, n = 3
Protocol: Antimicrobial activity. Several different methods were used to examine the antimicrobial properties of novispirins, including: a) two-stage radial diffusion assays; b) colony counting assays; and c) standard microbroth dilution assays.
Antimicrobial activity was tested in media with low, normal or high salinity. In radial diffusion assays, this was accomplished by using a low salt “basic medium” containing 0.3 mg of trypticase soy broth powder/ml of 10 mM sodium phosphate buffer, pH 7.4. Media with “normal” or “high” salinity were prepared by supplementing the basic medium with 100 mM NaCl to obtain media with normal salinity, or with 175-200 mM NaCl to obtain high salt media. Retention of activity against P. aeruginosa in high salt media is important because airway fluids from cystic fibrosis patients are reported to show hypersalinity, and other sites—including skin surfaces surfaces and the urinary bladder—may have locally high salt concentrations.
The relative activities of ovispirin and the novispirins against two organisms, E. coli and a multi-resistant strain of P. aeruginosa, are shown in FIG. 1. The MICs were obtained by radial diffusion assays performed under low, normal, and high salt conditions (which are denoted along the X-axis as 0, 100 and 200 mM NaCl, respectively).
Table 1 compares the activity of novispirins against these Gram-negative bacteria with its activity against Listeria monocytogenes, Staphylococcus aureus and C. albicans. […] Note that novispirins show activity against these Gram-positive bacteria when tested in physiological (100 mM NaCl) salt concentrations, and also that Novispirin G10 is quite active against C. albicans. Although neither ovispirin nor novispirins retained activity against C. albicans or the Gram positives under very high salt conditions (200 mM NaCl), they remained active against the Gram-negatives under these conditions. Consequently, even if the airways' NaCl concentrations are exceptionally high in CF patients, this factor will not impair the ability of ovispirin or novispirins to kill P. aeruginosa.

[13] = Very high salinity (+200 mM NaCl)

Row | Molecule | activity vs S. maltophilia ([3]; +100 mM NaCl) | activity vs S. maltophilia ([3]; +175 mM NaCl) | activity vs S. maltophilia ([3]; LOW SALT CONDITIONS) | activity vs S. maltophilia ([4]; +100 mM NaCl) | activity vs S. maltophilia ([4]; +175 mM NaCl) | activity vs S. maltophilia ([4]; LOW SALT CONDITIONS) | activity vs S. maltophilia ([5]; +100 mM NaCl) | activity vs S. maltophilia ([5]; +175 mM NaCl) | activity vs S. maltophilia ([5]; LOW SALT CONDITIONS) | activity vs S. maltophilia ([6]; +100 mM NaCl) | activity vs S. maltophilia ([6]; +175 mM NaCl) | activity vs S. maltophilia ([6]; LOW SALT CONDITIONS) | activity vs S. maltophilia ([7]; +100 mM NaCl) | activity vs S. maltophilia ([7]; +175 mM NaCl) | activity vs S. maltophilia ([7]; LOW SALT CONDITIONS) | other results
1 | CC[C@H](C)[C@H](NC(=O)[C@H](CCCCN)NC(=O)[C@H](CCC(=O)O)NC(=O)[C@H](CCCCN)NC(=O)[C@H](CO)NC(=O)[C@H](CCCCN)NC(=O)[C@H](CCCNC(=N)N)NC(=O)[C@H](Cc1ccccc1)NC(=O)[C@H](Cc1ccccc1)NC(=O)[C@H](CC(=O)O)NC(=O)CNC(=O)[C@H](CC(C)C)NC(=O)[C@@H](N)CC(C)C)C(=O)NCC(=O)N[C@@H](CCCCN)C(=O)N[C@@H](CCC(=O)O)C(=O)N[C@@H](Cc1ccccc1)C(=O)N[C@@H](CCCCN)C(=O)N[C@@H](CCCNC(=N)N)C(=O)N[C@H](C(=O)N[C@H](C(=O)N[C@@H](CCC(N)=O)C(=O)N[C@@H](CCCNC(=N)N)C(=O)N[C@H](C(=O)N[C@@H](CCCCN)C(=O)N[C@@H](CC(=O)O)C(=O)N[C@@H](Cc1ccccc1)C(=O)N[C@@H](CC(C)C)C(=O)N[C@@H](CCCNC(=N)N)C(=O)N[C@@H](CC(N)=O)C(=O)N[C@@H](CC(C)C)C(=O)N[C@H](C(=O)N1CCC[C@H]1C(=O)N[C@@H](CCCNC(=N)N)C(=O)N[C@H](C(=O)N[C@@H](CCC(=O)O)C(=O)N[C@@H](CO)C(=O)O)[C@@H](C)O)C(C)C)[C@@H](C)CC)C(C)C)[C@@H](C)CC [LL-37, reference compound] | – | – | – | – | – | – | – | – | – | – | – | – | – | – | – | MIC ([1]; 0% NHS): 12.7 µg/mL (≈ 2.83 µM); MIC ([1]; 2.5% NHS): 23.7 µg/mL (≈ 5.27 µM); MIC ([1]; 20% NHS): 141 µg/mL (≈ 31.4 µM); MIC ([2]; 0% NHS): 5.8 µg/mL (≈ 1.29 µM); MIC ([2]; 2.5% NHS): 21.0 µg/mL (≈ 4.67 µM)
2 | CC(C)C[C@H](NC(=O)[C@H](CCCNC(=N)N)NC(=O)CNC(=O)CNC(=O)[C@@H](N)CCCNC(=N)N)C(=O)N[C@H]1CSSC[C@@H](C(=O)N[C@H](C(=O)NCC(=O)N[C@@H](CCCNC(=N)N)C(N)=O)C(C)C)NC(=O)[C@H](C(C)C)NC(=O)[C@@H]2CSSC[C@H](NC(=O)[C@H](Cc3ccc(O)cc3)NC1=O)C(=O)N[C@@H](CCCNC(=N)N)C(=O)N[C@@H](CCCNC(=N)N)C(=O)N[C@@H](CCCNC(=N)N)C(=O)N[C@@H](Cc1ccccc1)C(=O)N2 [Protegrin PG-1, reference compound] | 0.92 | 1.08 | 0.42 | 0.53 | 0.74 | 0.09 | 0.46 | 0.57 | 0.27 | 0.58 | 0.70 | 0.52 | 0.50 | 0.79 | 0.32 | –
3 | GLLRRLRKKIGEIFKKYG [PGG, reference compound] | 2.20 | 2.85 | 1.31 | 1.08 | 1.64 | 0.73 | 1.05 | 1.11 | 1.10 | 1.63 | 2.34 | 0.86 | 2.67 | 7.10 | 1.51 | –
4 | K N L R R I I R K G I H I I K K Y G-CONH2 (KNLRRIIRKGIHIIKKYG-NH2) [Novispirin G10 amide] | – | – | – | – | – | – | – | – | – | – | – | – | – | – | – | MIC ([8]; +1 mM Ca): 83.5 ± 6.4; MIC ([8]; +1 mM Mg): >250; MIC ([8]; No Ca/Mg): 0.12 ± 0.01; MIC [9]: >79; MIC ([10]; +1 mM Ca): 83.5 ± 6.4; MIC ([10]; +1 mM Mg): >250; MIC ([10]; No Ca/Mg): 0.12 ± 0.01; MIC ([11]; +1 mM Ca): 7.26 ± 0.02; MIC ([11]; +1 mM Mg): 17.2 ± 3.9; MIC ([11]; No Ca/Mg): 0.06 ± 0.00
5 | KNLRRIGRKIIHIIKKYG [G7 Novispirin, K N L R R I G R K I I H I I K K Y G] | 0.89 | 1.94 | 0.54 | 0.39 | 0.29 | 0.25 | 0.31 | 0.29 | 0.17 | 0.38 | 0.70 | 0.61 | 0.92 | 2.85 | 0.42 | MIC ([12]; Low Salt (+0 mM NaCl)): 0.2 ± 0.0 µg/mL; MIC ([12]; Normal salinity (+100 mM NaCl)): 0.2 ± 0.0 µg/mL; MIC [12, 13]: 1.5 ± 0.4 µg/mL
6 | KNLRRITRKIIHIIKKYG [T7 Novispirin, K N L R R I T R K I I H I I K K Y G] | 1.75 | 2.74 | 0.88 | 0.47 | 0.48 | 0.18 | 0.32 | 0.52 | 0.21 | 0.58 | 0.62 | 0.74 | 0.73 | 1.92 | 0.56 | MIC ([12]; Low Salt (+0 mM NaCl)): 0.3 ± 0.1 µg/mL; MIC ([12]; Normal salinity (+100 mM NaCl)): 0.2 ± 0.1 µg/mL; MIC [12, 13]: 1.4 ± 0.5 µg/mL
7 | Polymyxin B [reference compound] | 0.04 | 0.05 | 0.02 | 0.08 | 0.05 | 0.16 | 0.02 | 0.02 | 0.06 | 0.04 | 0.002 | 0.04 | 0.02 | 0.01 | 0.05 | –
